Test results from patent US4339535A, “Process for preparing antibiotic EM 4940” (E. R. Squibb & Sons, Inc., priority 1980, dated 1982).

Key:
Staphylococcus aureus = test: MIC aerobic screen, BA-2 agar; conditions: Table II, additional tests
Proteus rettgeri = test: MIC aerobic screen, BA-2 agar; conditions: Table II, additional tests; strain 8217
Salmonella typhimurium = test: MIC aerobic screen, BA-2 agar; conditions: Table II, additional tests; strain 9201
Shigella sonnei = test: MIC aerobic screen, BA-2 agar; assay type: cell-based; conditions: Table II, additional tests; strain 8449
Serratia marcescens = test: MIC aerobic screen, BA-2 agar; conditions: Table II, additional tests
Pseudomonas aeruginosa = test: MIC aerobic screen, BA-2 agar; conditions: Table II, additional tests
Klebsiella pneumoniae = test: MIC aerobic screen, BA-2 agar; conditions: Table II, additional tests; strain 11,066
Proteus morganii = test: MIC aerobic screen, BA-2 agar; conditions: Table II, additional tests; strain 9774
Enterobacter cloacae = test: MIC aerobic screen, BA-2 agar; conditions: Table II, additional tests; strain 10,459
Klebsiella aerogenes = test: MIC aerobic screen, BA-2 agar; conditions: Table II, additional tests; strain 10,436
Streptococcus faecalis = test: MIC aerobic screen, BA-2 agar; conditions: Table II, additional tests; strain 9011
Escherichia coli = test: MIC aerobic screen, BA-2 agar; conditions: Table II, additional tests
[1] = tested on: Acinetobacter calcoaceticus; test: MIC aerobic screen, BA-2 agar; conditions: Table II, additional tests; strain 8333
solubility = assay type: physicochemical; conditions: acetonitrile

CC1(O)CC(C(N)=O)N=C1c1ncccc1O (stereo not drawn) [EM4940B, 2,4-cis-3,4-dihydro-4-hydroxy-5-(3-hydroxy-2-pyridinyl)-4-methyl-2H-pyrrole-2-carboxamide]
Minimum Inhibitory Concentration (Staphylococcus aureus; strain 2400): > 200 µg/mL | Minimum Inhibitory Concentration (Staphylococcus aureus; strain 2661): > 200 µg/mL | Minimum Inhibitory Concentration (Staphylococcus aureus; strain 10,165): 100 µg/mL | Minimum Inhibitory Concentration (Staphylococcus aureus; strain 11,239): 100 µg/mL | Minimum Inhibitory Concentration (Proteus rettgeri): 50 µg/mL | Minimum Inhibitory Concentration (Salmonella typhimurium): 50 µg/mL | Minimum Inhibitory Concentration (Shigella sonnei): 50 µg/mL | Minimum Inhibitory Concentration (Serratia marcescens; strain 9782): 50 µg/mL | Minimum Inhibitory Concentration (Serratia marcescens; strain 11,111): 100 µg/mL | Minimum Inhibitory Concentration (Pseudomonas aeruginosa; strain 8754): 100 µg/mL | Minimum Inhibitory Concentration (Pseudomonas aeruginosa; strain 9330): > 200 µg/mL | Minimum Inhibitory Concentration (Pseudomonas aeruginosa; strain 9545): 12.5 µg/mL | Minimum Inhibitory Concentration (Klebsiella pneumoniae): 50 µg/mL | Minimum Inhibitory Concentration (Proteus morganii): 100 µg/mL | Minimum Inhibitory Concentration (Enterobacter cloacae): 100 µg/mL | Minimum Inhibitory Concentration (Klebsiella aerogenes): 50 µg/mL | Minimum Inhibitory Concentration (Streptococcus faecalis): > 200 µg/mL | Minimum Inhibitory Concentration (Escherichia coli; strain 10,404): 50 µg/mL | Minimum Inhibitory Concentration (Escherichia coli; strain 10,857): 50 µg/mL | Minimum Inhibitory Concentration [1]: 100 µg/mL | solubility of B form relative to A form (solubility): more soluble
